Assay results: patent US20250250230A1, “HETEROCYCLIC COMPOUND” (TAKEDA PHARMACEUTICAL COMPANY LIMITED, priority 2022, published 2025)

Target: T1, human orexin type 2 receptor (Homo sapiens, UniProt O43614)
T1 construct: expressed in transfected cells
T1 sequence (O43614 1-444): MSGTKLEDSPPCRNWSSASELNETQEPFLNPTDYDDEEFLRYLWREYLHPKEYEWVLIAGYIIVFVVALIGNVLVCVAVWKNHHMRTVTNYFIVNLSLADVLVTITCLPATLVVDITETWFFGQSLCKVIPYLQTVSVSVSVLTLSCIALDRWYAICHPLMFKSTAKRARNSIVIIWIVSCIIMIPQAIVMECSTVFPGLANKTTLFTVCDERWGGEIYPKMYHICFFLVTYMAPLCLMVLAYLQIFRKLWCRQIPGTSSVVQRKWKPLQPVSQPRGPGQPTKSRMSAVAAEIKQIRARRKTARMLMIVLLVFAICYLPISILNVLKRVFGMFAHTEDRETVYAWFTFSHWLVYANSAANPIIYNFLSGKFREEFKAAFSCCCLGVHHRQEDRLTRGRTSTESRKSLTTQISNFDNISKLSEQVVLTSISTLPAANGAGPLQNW
Assay: Measurement of orexin type 2 receptor agonist activity (calcium fluorescence, Fluo-4 AM, FDSS)
Assay type: cell-based
Conditions: test compound 3 μM; CHO cells expressing human OX2 receptor; DMSO = 0%, orexin A (human) = 100%
Source text: To obtain a cell clone stably expressing human orexin type 2 receptor, human orexin type 2 receptor cDNA was inserted into pcDNA3.1(+) plasmid vector (Invitrogen), and a plasmid DNA for expression of human orexin type 2 receptor (pcDNA3.1(+)/hOX2R) was cloned. The plasmid DNA was introduced into CHO-K1 cell by an electroporation method, and human orexin type 2 receptor expressing clone cells were obtained by limiting dilution method by using G418 drug resistance as a selection marker.
CHO cells forcibly expressing human OX2 receptor were seeded in each well of 384 well black transparent bottom plate (BD Falcon) at 10,000 cells/well, and cultured for one day in a 5% CO2 incubator at 37° C. After removal of the medium in the cell plate, assay buffer A containing a calcium indicator (HBSS (Thermo Fisher Scientific), 20 mM HEPES (Thermo Fisher Scientific), 0.1% BSA (Sigma-Aldrich), 2.5 μg/mL Fluo-4 AM (DOJINDO Chemical), 0.08% Pluronic F127 (DOJINDO Chemical), 1.25 mM probenecid (DOJINDO Chemical)) was added at 30 μL/well. The plate was stood for 30 min in a 5% CO2 incubator at 37° C., and further stood at room temperature for 30 min. A test compound prepared by diluting with assay buffer B (HBSS, 20 mM HEPES, 0.1% BSA) was added at 10 μL/well, and the fluorescence value was measured by FDSSμCELL (Hamamatsu Photonics K.K.) every one sec for 1 min, and thereafter every two sec for […]. The activity (%) of the test compound was calculated assuming that variation in the fluorescence value when DMSO was added instead of the test compound was 0%, and variation in the fluorescence value when orexin A (human) (PEPTIDE INSTITUTE, INC.) was added at the final concentration of 10 nM was 100%.

Row | OX2R agonist activity (3 μM, %) [%] | Structure (SMILES)
1 | 96 | CC1(C)C(C(=O)N2CC[C@H](NS(C)(=O)=O)C2)C1c1ccccc1-c1c(F)cccc1F (mixture of isomers) [Example 287, a mixture of N-{(3S)-1-[(1R,2R)-2-(2′,6′-difluoro[1,1′-biphenyl]-2-yl)-2,2-dimethylcyclopropane-1-carbonyl]pyrrolidin-3-yl}methanesulfonamide and N-{(3S)-1-[(1S,3S)-3-(2′,6′-difluoro[1,1′-biphenyl]-2-yl)-2,2-dimethylcyclopropane-1-carbonyl]pyrrolidin-3-yl}methanesulfonamide]
2 | 96 | CC1(C)C(C(=O)N2CCC[C@H](NS(C)(=O)=O)CC2)C1c1ccccc1-c1c(F)cccc1F (mixture of isomers) [Example 288, a mixture of N-{(4S)-1-[(1R,2R)-2-(2′,6′-difluoro[1,1′-biphenyl]-2-yl)-2,2-dimethylcyclopropane-1-carbonyl]azepan-4-yl}methanesulfonamide and N-{(4S)-1-[(1S,3S)-3-(2′,6′-difluoro[1,1′-biphenyl]-2-yl)-2,2-dimethylcyclopropane-1-carbonyl]azepan-4-yl}methanesulfonamide]
3 | 98 | CS(=O)(=O)N[C@H]1CCCN(C(=O)C2CC2(F)c2ccccc2-c2c(F)cccc2F)CC1 (mixture of isomers) [Example 290, a mixture of N-{(4S)-1-[(1R,2R)-2-(2′,6′-difluoro[1,1′-biphenyl]-2-yl)-2-fluorocyclopropane-1-carbonyl]azepan-4-yl}methanesulfonamide and N-{(4S)-1-[(1S,2S)-2-(2′,6′-difluoro[1,1′-biphenyl]-2-yl)-2-fluorocyclopropane-1-carbonyl]azepan-4-yl}methanesulfonamide]
4 | 93 | CS(=O)(=O)N[C@H]1CCCCN(C(=O)C2CC2(F)c2ccccc2-c2c(F)cccc2F)C1 (mixture of isomers) [Example 291, a mixture of N-{(3S)-1-[(1R,2R)-2-(2′,6′-difluoro[1,1′-biphenyl]-2-yl)-2-fluorocyclopropane-1-carbonyl]azepan-3-yl}methanesulfonamide and N-{(3S)-1-[(1S,2S)-2-(2′,6′-difluoro[1,1′-biphenyl]-2-yl)-2-fluorocyclopropane-1-carbonyl]azepan-3-yl}methanesulfonamide]
5 | 99 | CC1C(C(=O)N2CC[C@H](NS(C)(=O)=O)C2)C1c1ccccc1-c1c(F)cccc1F (mixture of isomers) [Example 303, a mixture of N-{(3S)-1-[(1R,2R,3S)-2-(2′,6′-difluoro[1,1′-biphenyl]-2-yl)-3-methylcyclopropane-1-carbonyl]pyrrolidin-3-yl}methanesulfonamide and N-{(3S)-1-[(1S,2S,3R)-2-(2′,6′-difluoro[1,1′-biphenyl]-2-yl)-3-methylcyclopropane-1-carbonyl]pyrrolidin-3-yl}methanesulfonamide]
6 | 85 | CC1C(C(=O)N2CCC[C@H](NS(C)(=O)=O)C2)C1c1ccccc1-c1c(F)cccc1F (mixture of isomers) [Example 305, a mixture of N-{(3S)-1-[(1R,2R,3S)-2-(2′,6′-difluoro[1,1′-biphenyl]-2-yl)-3-methylcyclopropane-1-carbonyl]piperidin-3-yl}methanesulfonamide and N-{(3S)-1-[(1S,2S,3R)-2-(2′,6′-difluoro[1,1′-biphenyl]-2-yl)-3-methylcyclopropane-1-carbonyl]piperidin-3-yl}methanesulfonamide]
7 | 100 | CC1C(C(=O)N2CCC[C@H](NS(C)(=O)=O)CC2)C1c1ccccc1-c1c(F)cccc1F (mixture of isomers) [Example 308, a mixture of N-{(4S)-1-[(1R,2R,3S)-2-(2′,6′-difluoro[1,1′-biphenyl]-2-yl)-3-methylcyclopropane-1-carbonyl]azepan-4-yl}methanesulfonamide and N-{(4S)-1-[(1S,2S,3R)-2-(2′,6′-difluoro[1,1′-biphenyl]-2-yl)-3-methylcyclopropane-1-carbonyl]azepan-4-yl}methanesulfonamide]
8 | 100 | CC1(NS(C)(=O)=O)CCCN(C(=O)[C@@H]2C[C@H]2c2ccccc2-c2c(F)cccc2F)C1 (mixture of isomers) [Example 310, a mixture of N-{(3R)-1-[(1R,2R)-2-(2′,6′-difluoro[1,1′-biphenyl]-2-yl)cyclopropane-1-carbonyl]-3-methylpiperidin-3-yl}methanesulfonamide and N-{(3S)-1-[(1R,2R)-2-(2′,6′-difluoro[1,1′-biphenyl]-2-yl)cyclopropane-1-carbonyl]-3-methylpiperidin-3-yl}methanesulfonamide]
9 | 98 | CC1C(C(=O)N2CCCC[C@H](NS(C)(=O)=O)C2)C1c1ccccc1-c1c(F)cccc1F (mixture of isomers) [Example 311, a mixture of N-{(3S)-1-[(1R,2R,3S)-2-(2′,6′-difluoro[1,1′-biphenyl]-2-yl)-3-methylcyclopropane-1-carbonyl]azepan-3-yl}methanesulfonamide and N-{(3S)-1-[(1S,2S,3R)-2-(2′,6′-difluoro[1,1′-biphenyl]-2-yl)-3-methylcyclopropane-1-carbonyl]azepan-3-yl}methanesulfonamide]
10 | 97 | CC1(NS(C)(=O)=O)CCCN(C(=O)[C@@H]2C[C@H]2c2ccccc2-c2c(F)cccc2F)CC1 (mixture of isomers) [Example 313, a mixture of N-{(4R)-1-[(1R,2R)-2-(2′,6′-difluoro[1,1′-biphenyl]-2-yl)cyclopropane-1-carbonyl]-4-methylazepan-4-yl}methanesulfonamide and N-{(4S)-1-[(1R,2R)-2-(2′,6′-difluoro[1,1′-biphenyl]-2-yl)cyclopropane-1-carbonyl]-4-methylazepan-4-yl}methanesulfonamide]
11 | 101 | CS(=O)(=O)N[C@H]1CCN(C(=O)C2C(c3ccccc3-c3c(F)cccc3F)C2(F)F)C1 (mixture of isomers) [Example 320, a mixture of N-{(3S)-1-[(1R,2R)-2-(2′,6′-difluoro[1,1′-biphenyl]-2-yl)-2,2-difluorocyclopropane-1-carbonyl]pyrrolidin-3-yl}methanesulfonamide and N-{(3S)-1-[(1S,3S)-3-(2′,6′-difluoro[1,1′-biphenyl]-2-yl)-2,2-difluorocyclopropane-1-carbonyl]pyrrolidin-3-yl}methanesulfonamide]
12 | 95 | CC(O)[C@@H]1CN(C(=O)[C@@H]2C[C@@]2(F)c2ccccc2-c2c(F)cccc2F)[C@H]1CNS(C)(=O)=O (mixture of isomers) [Example 404, a mixture of N-{[(2R,3R)-1-[(1S,2S)-2-(2′,6′-difluoro[1,1′-biphenyl]-2-yl)-2-fluorocyclopropane-1-carbonyl]-3-[(1R)-1-hydroxyethyl]azetidin-2-yl]methyl}methanesulfonamide and N-{[(2R,3R)-1-[(1S,2S)-2-(2′,6′-difluoro[1,1′-biphenyl]-2-yl)-2-fluorocyclopropane-1-carbonyl]-3-[(1S)-1-hydroxyethyl]azetidin-2-yl]methyl}methanesulfonamide]
13 | 88 | Cc1noc(C2(NS(C)(=O)=O)CCN(C(=O)[C@@H]3C[C@@]3(F)c3ccccc3-c3c(F)cccc3F)C2)n1 (mixture of isomers) [Example 421, a mixture of N-[(3R)-1-[(1S,2S)-2-(2′,6′-difluoro[1,1′-biphenyl]-2-yl)-2-fluorocyclopropane-1-carbonyl]-3-(3-methyl-1,2,4-oxadiazol-5-yl)pyrrolidin-3-yl]methanesulfonamide and N-[(3S)-1-[(1S,2S)-2-(2′,6′-difluoro[1,1′-biphenyl]-2-yl)-2-fluorocyclopropane-1-carbonyl]-3-(3-methyl-1,2,4-oxadiazol-5-yl)pyrrolidin-3-yl]methanesulfonamide]
